Measurements published in US11517617B2, “Methods and compositions for preventing influenza infection” (THE UNIVERSITY OF MELBOURNE, priority 2017, dated 2022).
No end group written: not given here.

Assays:
[1] = test system: CD8+ T cells; parameters: species or system transgenic HLA-A24 mice; settings: mouse, in vivo
[2] = test system: CD8^+ T cells; assay: In vitro screening and validation in HLA-A*02:01-expressing human PBMCs, CD8^+ T cell lines, IFNγ/TNF ICS; type: cell-based; settings: for CD8^+ T cell response hierarchy of individual peptides: HLA-A*0201^+ donors, dissection of pools into individual peptides
Source text: As a next step, the IBV-specific CD8^+ T cell responses towards the 67 LC/MS-identified IBV-peptides in HLA-A*02:01-expressing individuals were dissected. CD8^+ T cell lines specific for each of the 6 peptide pools were established, and then re-stimulated cells with the cognate pool in an IFNγ/TNF ICS assay (FIG. 2f).
To validate these responses independently of the peptide pools, CD8^+ T cell lines were established towards individual immunogenic peptides (FIG. 2i). […] Thus, these thorough in vivo and in vitro analyses identified 5 novel peptides recognized by CD8^+ T cells in complex with the HLA-A*02:01 molecule, with BHA543-551 being immunodominant amongst the peptides tested, in both mice and humans.
Peripheral blood mononuclear cells (PBMC) from healthy A2:01+ donors were cultured in the presence of antigens (10 μM peptide) for 10 days in the presence of IL-2 (10 U/ml). On day 10 PBMCs were stimulated with peptides (1 μM) for 5 hours in the presence of BFA. Cells were surface stained for CD3 and CD8 and intracellularly stained for IFNγ and TNF using the BD cytofix/cytoperm kit according to the manufacturer's instructions (BD Biosciences).
Any pools with positive ICS responses were then dissected to their individual peptides.

[3] = test system: CD8^+ T cells; parameters: species or system HHD-A2 mice; settings: mouse, in vivo
[4] = test system: CD8^+ T cells; parameters: species or system A24 mice; settings: mouse
[5] = test system: memory CD8^+ T cells within PBMCs; type: cell-based, human
[6] = test system: tetramer^+ CD8^+ T cells; assay: Tetramer staining of IAV- or IBV-specific CD8^+ T cell lines established in vitro from healthy adult PBMC; type: cell-based, human; settings: IBV-specific T cell lines
Source text: Conversely, the universal A2/PB1413 epitope within the IBV-specific T cell lines was immunodominant (0.3%; detected in 8/11 donors) over the IBV-specific A2/BHA543 (0.11%; detected in 10/11 donors) and A2/BNS1266 epitopes (0.01%) (FIG. 4c).

[7] = test system: human lung CD8^+ T cells; assay: Ex vivo tetramer detection in human lung samples from deceased organ donors; type: cell-based; settings: n=3 lung donors
Source text: As human memory CD8^+ T cells also reside outside the circulation, a rare set of human lung samples from deceased organ donors (n=3) were used to assess the presence of universal A2/PB1413^+CD8^+ T cells at the site of infection. CD8^+ T cells specific for A2/M158 and A2/PB1413, but not A2/BHA543 were detected within human lung CD8^+ T cells (2/3 donors for either specificity, FIG. 3f). […] Although based on a limited number of donors, this analysis indicates the presence of universal A2/PB1413^+ tissue-resident memory CD8^+ T cell pools in the human lung.

[8] = test system: CD8^+ T cells; type: cell-based, human
[9] = molecular target: HLA-A*02:01 (Homo sapiens, UniProt P04439, D140Y/D185E/D98H/E176V/E277Q/G131W/G231S/I119V/I121R/I166T/I218V/L300P/L318F/N151K/N90K/P208A/P217A/Q86G/Q94H/R138H/R169H/T345S); assay: Thermal stability of pHLA-A*02:01 complex (Tm); type: binding
[10] = test system: CD8^+ T cells; type: cell-based, human; remark: listed apart in the source
[11] = test system: CD8^+ T cells
[12] = test system: CD8^+ T cells; assay: Recall responses in HHD-A2 mice primed with B/Malaysia and challenged with B/Phuket; type: in vivo
Source text: To further verify the immunogenicity of these epitopes in recall responses, HHD-A2 mice were primed i.n. with B/Malaysia, infected with the heterologous strain B/Phuket 6 weeks later and then assessed CD8^+ T cells against the main epitopes A2/BHA543-551 and A2/BNS1266-274 in the spleen on d8 after challenge.

[13] = test system: tetramer^+ CD8^+ T cells; type: cell-based, human
[14] = test system: tetramer^+CD8^+ T cells; type: cell-based, human
[15] = T cell lines towards individual peptides, n=6

## IYFSPIRVTF (Influenza B virus) [NP164-173]
[1]
  immunogenicity (induction of IFNγ production in CD8+ T cells after peptide re-stimulation): immunogenic

## YFSPIRVTF (Influenza B virus) [NP165-173]
[1]
  immunogenicity (induction of IFNγ production in CD8+ T cells after peptide re-stimulation): immunogenic

## SLNDDGLDNHTILL (Influenza B virus) [HA538-551]
[2]
  CD8^+ T cell response hierarchy of individual peptides: Subdominant responses
[3]
  CD8+ T cell responses (IFNγ and TNF production): detected

## SYLIRALTL (Influenza A virus) [PB1216-224]
[4]
  in vivo CD8^+ T cell responses: targeted

## TYHSYANNI (Influenza B virus) [NA213-221]
[1]
  immunogenicity (induction of IFNγ production in CD8+ T cells after peptide re-stimulation): immunogenic

## VSDGGPNLY (Influenza A virus) [PB1591-599]
[5]
  memory CD8^+ T cell responses (IFN-γ production after peptide re-stimulation): robust memory CD8^+ T cell responses

## GLDNHTILL [HA543-551, GLDNHTILL]
[6]
  donors with detected tetramer^+ cells: 10/11
[6]; n=11
  tetramer^+ of CD8^+ T cells, median: 0.11%
[7]
  epitope-specific CD8^+ T cells detected within human lung CD8^+ T cells: not
[8]
  polyfunctionality: inferior
[2]; 10 days culture with 10 μM peptide and IL-2, re-stimulation 1 μM
  ICS responses in healthy A2:01+ donors: detected across multiple donors
[2]
  CD8^+ T cell response hierarchy of individual peptides: immunodominant epitope
[2]; [15]
  CD8^+ T cell response, median: 7.35 % of CD8^+ T cells
  donors with response: 6/6
[3]
  CD8+ T cell responses (IFNγ and TNF production): CD8+ T cell responses were targeted
  CD8^+ T cell response, mean: 5 % of CD8^+ T cells
  CD8^+ T cell responses at the site of infection: targeted
[9]
  Tm (temperature required to unfold 50% of the protein) of pHLA-A*02:01 complex: ~72 °C
[10]
  additional low avidity CD8^+ T cells detected by Q115E staining: could be detected
[11]
  EC50: 0.78 nM
[12]; primary infection
  polyfunctional IFNγ^+TNF^+IL-2^+ CD8^+ T cells: 0.14 % of CD8^+ T cells
[12]; secondary infection, p=0.013
  polyfunctional IFNγ^+TNF^+IL-2^+ CD8^+ T cells: 2.14 % of CD8^+ T cells
[12]; spleen d8 after B/Phuket challenge, not statistically significant
  number of secondary IFNγ^+TNF^+ CD8^+ T cells in the spleen versus primary infection: ~27 fold
[13]
  CD38^+/Ki-67^+ expression of tetramer-positive CD8^+ T cells: increase
  increase in numbers of epitope-specific CD8^+ T cells versus healthy donors: 2.2 fold
  individuals with detected epitope-specific CD8^+ T cells: 75%
[14]
  d14 frequency lower than universal A2/PB1413^+CD8^+ T cells: 5 fold

## TYQWIIRNW (Influenza A virus) [PB2549-557]
[4]
  in vivo CD8^+ T cell responses: targeted

## AAYEDLRVL (Influenza B virus) [NP392-400]
[1]
  immunogenicity (induction of IFNγ production in CD8+ T cells after peptide re-stimulation): immunogenic

## LYSDILLKF (Influenza B virus) [NA32-40]
[1]
  immunogenicity (induction of IFNγ production in CD8+ T cells after peptide re-stimulation): immunogenic

## IYHPGGNKL (Influenza B virus) [PB2245-253]
[1]
  immunogenicity (induction of IFNγ production in CD8+ T cells after peptide re-stimulation): immunogenic

## FEDLRVLSA (Influenza A virus) [NP338-345]
[5]
  memory CD8^+ T cell responses (IFN-γ production after peptide re-stimulation): robust memory CD8^+ T cell responses
